This note sets out measurements from US8232271B2 (priority 2008, dated 2012).

Data set [1] concerns the target T1, HCV polymerase (NS5B570n-Con1) (Hepatitis C virus genotype 1b, UniProt Q9WMX2).
T1 construct: contains a 21 amino acid deletion at the C-terminus relative to the full-length HCV polymerase; 6-histidine (N); made in house; host or cells: E. coli BL21(DE) pLysS, plasmid pET17b
Description: HCV NS5B RNA polymerase activity assay. The format is biochemical, HCV Con1 strain. The method, then:
The enzymatic activity of HCV polymerase (NS5B570n-Con1) was measured as the incorporation of radiolabeled nucleotide monophosphates into acid insoluble RNA products. Unincorporated radiolabeled substrate was removed by filtration and scintillant was added to the washed and dried filter plate containing radiolabeled RNA product. The amount of RNA product generated by NS5B570-Con1 at the end of the reaction was directly proportional to the amount of light emitted by the scintillant.
The N-terminal 6-histidine tagged HCV polymerase, derived from HCV Con1 strain, genotype 1b (NS5B570n-Con1) contains a 21 amino acid deletion at the C-terminus relative to the full-length HCV polymerase and was purified from E. coli strain BL21(DE) pLysS. The construct, containing the coding sequence of HCV NS5B Con1 (GenBank accession number AJ242654) was inserted into the plasmid construct pET17b, downstream of a T7 promoter expression cassette and transformed into E. coli. A single colony was grown overnight as a starter culture and later used inoculate 10 L of LB media supplemented with 100 μg/mL ampicillin at 37° C. Protein expression was induced by the addition of 0.25 mM isopropyl-β-D-thiogalactopyranoside (IPTG) when optical density at […] of the culture was between 0.6 and 0.8 and cells were harvested after 16 to 18 h at 30° C. NS5B570n-Con1 was purified to homogeneity using a three-step protocol including subsequent column chromatography on Ni-NTA, SP-Sepharose HP and Superdex 75 resins.
Each 50 μl enzymatic reaction contained 20 nM RNA template derived from the complementary sequence of the Internal Ribosome Entry Site (cIRES), 20 nM NS5B570n-Con1 enzyme, 0.5 μCi of tritiated UTP (Perkin Elmer catalog no. TRK-412; specific activity: 30 to 60 Ci/mmol; stock solution concentration from 7.5×10^-5 M to 20.6×10^-6 M), 1 μM each ATP, CTP, and GTP, 40 mM Tris-HCl pH 8.0, 40 mM NaCl, 4 mM DTT (dithiothreitol), 4 mM MgCl2, and 5 μl of compound serial diluted in DMSO. Reaction mixtures were assembled in 96-well filter plates (cat #MADVN0B, Millipore Co.) and incubated for 2 h at 30° C. Reactions were stopped by addition of 10% final (v/v) trichloroacetic acid and incubated for 40 min at 4° C. Reactions were filtered, washed with 8 reaction volumes of 10% (v/v) trichloroacetic acetic acid, 4 reaction volumes of 70% (v/v) ethanol, air dried, and 25 μl of scintillant (Microscint 20, Perkin-Elmer) was added to each reaction well.
The amount of light emitted from the scintillant was converted to counts per minute (CPM) on a Topcount® plate reader (Perkin-Elmer, Energy Range: Low, Efficiency Mode: Normal, Count Time: 1 min, Background Subtract: none, Cross talk reduction: Off).
Data was analyzed in Excel® (Microsoft®) and ActivityBase® (Idbs®). The reaction in the absence of enzyme was used to determine the background signal, which was subtracted from the enzymatic reactions. Positive control reactions were performed in the absence of compound, from which the background corrected activity was set as 100% polymerase activity. All data was expressed as a percentage of the positive control. The compound concentration at which the enzyme-catalyzed rate of RNA synthesis was reduced by 50% (IC50) was calculated by fitting
[formula] equation (i) to the data. where “Y” corresponds to the relative enzyme activity (in %), “% Min” is the residual relative activity at saturating compound concentration, “% Max” is the relative maximum enzymatic activity, “X” corresponds to the compound concentration, and “S” is the Hill coefficient (or slope).

With `COC(=O)CCc1cc(OC)c(C(C)(C)C)cc1-c1ccc[nH]c1=O` [Compound I-3, 3-[4-tert-Butyl-5-methoxy-2-(2-oxo-1,2-dihydro-pyridin-3-yl)-phenyl]-propionic acid methyl ester], the IC50 in data set [1] worked out at 954 nM.

In turn, `COc1cc(CN2CCN(C)S2(=O)=O)c(-c2ccc[nH]c2=O)cc1C(C)(C)C` [Compound I-64, 3-[5-tert-Butyl-4-methoxy-2-(5-methyl-1,1-dioxo-1λ^6-[1,2,5]thiadiazolidin-2-ylmethyl)-phenyl]-1H-pyridin-2-one] registered a melting point of 253 to 255 °C. The IC50 in data set [1] is 60 nM.

The compound `COc1cc(CN2CCOC2=O)c(-c2ccc[nH]c2=O)cc1C(C)(C)C` [Compound I-74] registered an IC50 in data set [1] of 56 nM.

For `CCOC(=O)[C@H]1CCC(=O)N1Cc1cc(OC)c(C(C)(C)C)cc1-c1ccc[nH]c1=O` [Compound I-70, (R)-1-[4-tert-Butyl-5-methoxy-2-(2-oxo-1,2-dihydro-pyridin-3-yl)-benzyl]-5-oxo-pyrrolidine-2-carboxylic acid ethyl ester], the melting point was in the range of 92 to 95 °C. The IC50 in data set [1] is 70 nM.

As to `COc1cc(CN2C(=O)CC[C@@H]2C(=O)O)c(-c2ccc[nH]c2=O)cc1C(C)(C)C` [Compound I-71, (R)-1-[4-tert-Butyl-5-methoxy-2-(2-oxo-1,2-dihydro-pyridin-3-yl)-benzyl]-5-oxo-pyrrolidine-2-carboxylic acid], the melting point is 199 to 200 °C. This compound also displayed an IC50 in data set [1] of 36 nM.

On to `COc1cc(C(=O)N2CCC(CO)C2)c(-c2ccc[nH]c2=O)cc1C(C)(C)C` (centres unmarked) [Compound I-73], for which the melting point is 201 to 203 °C. The IC50 in data set [1] stood at 1610 nM.

In data set [1], `COc1cc(CC(=O)O)c(-c2ccc[nH]c2=O)cc1C(C)(C)C` [Compound I-7, [4-tert-Butyl-5-methoxy-2-(2-oxo-1,2-dihydro-pyridin-3-yl)-phenyl]-acetic acid] had an IC50 of 156 nM.

On to `COc1cc(C(=O)N2CCC(C#N)CC2)c(-c2ccc[nH]c2=O)cc1C(C)(C)C` [Compound I-56, 1-[4-tert-Butyl-5-methoxy-2-(2-oxo-1,2-dihydro-pyridin-3-yl)-benzoyl]-piperidine-4-carbonitrite], for which the melting point lay in the range of 213 to 215 °C. The midpoint of inhibition in data set [1], the IC50, lay at 432 nM.

Take `COc1cc(C(=O)N2CCS(=O)(=O)CC2)c(-c2ccc[nH]c2=O)cc1C(C)(C)C` [Compound I-51]: the melting point was 252 to 254 °C. Also, in data set [1], the IC50 is 552 nM.

In the case of `COc1cc(C(C)NS(C)(=O)=O)c(-c2ccc[nH]c2=O)cc1C(C)(C)C` (centres unmarked) [Compound I-52, N-{1-[4-tert-butyl-5-methoxy-2-(2-oxo-1,2-dihydro-pyridin-3-yl)-phenyl]-ethyl}-methanesulfonamide], the melting point fell in the range of 284 to 286 °C. In data set [1], this compound yielded an IC50 of 654 nM.

In turn, `COc1cc(CN2C(=O)CC[C@@H]2CO)c(-c2ccc[nH]c2=O)cc1C(C)(C)C` [Compound I-83] gave a melting point of 150 to 152 °C. In data set [1], the IC50 was 146 nM.

On to `COc1cc(CNS(C)(=O)=O)c(-c2ccc(C)[nH]c2=O)cc1C(C)(C)C` [Compound I-37, N-[4-tert-Butyl-5-methoxy-2-(6-methyl-2-oxo-1,2-dihydro-pyridin-3-yl)-benzyl]-methanesulfonamide], for which the melting point lay within 120 to 125 °C. The compound also had an IC50 in data set [1] of 146 nM.

As for `COc1cc(CN(C)C(=O)c2ccccc2)c(-c2ccc[nH]c2=O)cc1C(C)(C)C` [Compound I-22], the melting point was 236.2 to 238 °C. In data set [1], this compound gave an IC50 of 25 nM.

Turning to `COc1cc(C(=O)N(C)Cc2ccncc2)c(-c2ccc[nH]c2=O)cc1C(C)(C)C` [Compound I-58], the melting point is 199 to 201 °C. For the same compound, 1140 nM corresponded to half-maximal inhibition in data set [1] (IC50).

In data set [1], `COc1cc(CN(C(C)=O)c2ccccc2)c(-c2ccc[nH]c2=O)cc1C(C)(C)C` [Compound I-89] displayed a half-inhibitory concentration (IC50) of 106 nM.

For the compound `COc1cc(CN2C(=O)OC[C@H]2C(C)C)c(-c2ccc[nH]c2=O)cc1C(C)(C)C` [Compound I-75], half-maximal inhibition in data set [1] (IC50) was put at 86 nM.

`COc1cc(CNC(=O)c2cccnc2)c(-c2ccc[nH]c2=O)cc1C(C)(C)C` [Compound I-49] displayed an IC50 in data set [1] of 26 nM.

With `COc1cc(C(=O)N2CCOC(CO)C2)c(-c2ccc[nH]c2=O)cc1C(C)(C)C` (centres unmarked) [Compound I-78], half-maximal inhibition in data set [1] (IC50) required 1410 nM.

As for `COc1cc(CNS(N)(=O)=O)c(-c2ccc[nH]c2=O)cc1C(C)(C)C` [Compound I-50, N-[4-tert-Butyl-5-methoxy-2-(2-oxo-1,2-dihydro-pyridin-3-yl)-benzyl]-sulfamide], half-maximal inhibition in data set [1] (IC50) was put at 49 nM.

Compound `COc1cc(CC(N)=O)c(-c2ccc[nH]c2=O)cc1C(C)(C)C` [Compound I-11, 2-[4-tert-Butyl-5-methoxy-2-(2-oxo-1,2-dihydro-pyridin-3-yl)-phenyl]-acetamide] gave an IC50 in data set [1] of 437 nM.

Regarding `COc1cc(CNC(=O)c2ccc(N(S(C)(=O)=O)S(C)(=O)=O)cc2)c(-c2ccc[nH]c2=O)cc1C(C)(C)C` [Compound I-44], half-maximal inhibition in data set [1] (IC50) was put at 774 nM.

For `COc1cc(CCC(=O)O)c(-c2ccc[nH]c2=O)cc1C(C)(C)C` [Compound I-1, 3-[4-tert-Butyl-5-methoxy-2-(2-oxo-1,2-dihydro-pyridin-3-yl)-phenyl]-propionic acid], it took 273 nM to reach half-maximal inhibition in data set [1] (IC50).

Turning to `COc1cc(C(=O)N2CCC(Oc3ccccc3)CC2)c(-c2ccc[nH]c2=O)cc1C(C)(C)C` [Compound I-79], the IC50 in data set [1] was 1320 nM.

`CNC(=O)c1cc(OC)c(C(C)(C)C)cc1-c1ccc[nH]c1=O` [Compound I-9, 4-tert-Butyl-5-methoxy-N-methyl-2-(2-oxo-1,2-dihydro-pyridin-3-yl)-benzamide] registered an IC50 in data set [1] of 442 nM.

For `CNC(=O)Cc1cc(OC)c(C(C)(C)C)cc1-c1ccc[nH]c1=O` [Compound I-10, 2-[4-tert-Butyl-5-methoxy-2-(2-oxo-1,2-dihydro-pyridin-3-yl)-phenyl]-N-methyl-acetamide], in data set [1], the IC50 was 700 nM.

`COc1cc(C(=O)NCC#N)c(-c2ccc[nH]c2=O)cc1C(C)(C)C` [Compound I-85] came in with an IC50 in data set [1] of 23 nM.

`COc1cc(CNS(C)(=O)=O)c(-c2cc(F)c[nH]c2=O)cc1C(C)(C)C` [Compound I-45] gave a concentration for half-maximal inhibition (IC50) in data set [1] of 687 nM.

Consider `COc1cc(CN2CCCC2=O)c(-c2ccc[nH]c2=O)cc1C(C)(C)C` [Compound I-18, 3-[5-tert-Butyl-4-methoxy-2-(2-oxo-pyrrolidin-1-ylmethyl)-phenyl]-1H-pyridin-2-one], for which the midpoint of inhibition in data set [1], the IC50, lay at 121 nM.

Compound `COc1cc(CN2C(=O)OC[C@@H]2C(C)C)c(-c2ccc[nH]c2=O)cc1C(C)(C)C` [Compound I-76, 3-[5-tert-Butyl-2-((S)-4-isopropyl-2-oxo-oxazolidin-3-ylmethyl)-4-methoxy-phenyl]-1H-pyridin-2-one] registered a half-inhibitory concentration (IC50) in data set [1] of 134 nM.

As for `COc1cc(CS(C)(=O)=O)c(-c2ccc[nH]c2=O)cc1C(C)(C)C` [Compound I-15, 3-(5-tert-Butyl-2-methanesulfonylmethyl-4-methoxy-phenyl)-1H-pyridin-2-one], half-maximal inhibition in data set [1] (IC50) was put at 746 nM.

Compound `COc1cc(CNS(C)(=O)=O)c(-c2ccc[nH]c2=O)cc1C(C)(C)C` [Compound I-13, N-[4-tert-Butyl-5-methoxy-2-(2-oxo-1,2-dihydro-pyridin-3-yl)-benzyl]-methane sulfonamide] returned an IC50 in data set [1] of 64 nM.

Compound `COc1cc(CN(C)C(C)=O)c(-c2ccc[nH]c2=O)cc1C(C)(C)C` [Compound I-14] gave an IC50 in data set [1] of 151 nM.

In the case of `COc1cc(CNC(C)=O)c(-c2ccc[nH]c2=O)cc1C(C)(C)C` [Compound I-12], in data set [1], 125 nM corresponded to half-maximal inhibition (IC50).
